These results are taken from patent US10252997B2, “Monocyclic compound” (Takeda Pharmaceutical Company Limited, priority 2015, dated 2019).

Experiment [1] addresses T1, Human ACC1 (Homo sapiens, UniProt Q13085).
T1 construct: His6 (from vector pFAST-BacHTc; purified on Ni-NTA) (N); made in house; host or cells: SF-9 insect cells, recombinant baculovirus BAC-ACC1
Nature of the experiment: Measurement of ACC1 inhibitory activity (Malonyl-CoA produced, RapidFire-mass spectrometry). As to conditions: 10 μM of the test compound; read-out: ACC1 inhibitory rate (%) at 10 μM. Type of experiment: biochemical. As to the method: (1) Cloning of Human ACC1 Gene and Preparation of Recombinant Baculovirus
Human ACC1 gene was cloned by PCR using a human liver cDNA library (Clontech) as a template and Primer 1 and Primer 2 shown below. Primer 1 and Primer 2 were prepared by adding SalI, NotI restriction enzyme recognition sequences based on the information of the base sequence of human ACC1 gene (Genbank Accession U19822).
PCR was performed using Pyrobest DNA polymerase (TAKARA BIO INC.). The obtained PCR product was cloned to pT7 Blue vector (Novagen) and after confirmation of the base sequence, digested with restriction enzymes SalI and […]. The obtained DNA fragment was inserted into pFAST-BacHTc (Invitrogen) digested with restriction enzymes SalI and […] to give expression plasmid ACC1/pFAST-BacHTc.
Using the expression plasmid ACC1/pFAST-BacHTc and BAC-TO-BAC Baculovirus Expression System (Invitrogen), virus stock BAC-ACC1 of recombinant Baculovirus was prepared.
(2) Preparation of ACC1 Protein
SF-9 cells (Invitrogen) were inoculated to a medium (10 L) for insect cells (Sf-900IISFM medium (Invitrogen) containing 5% fetal bovine serum (Trace), 50 mg/L Gentamicin (Wako Pure Chemical Industries, Ltd.) and 0.1% Pluronic F-68 (Invitrogen)) at 1.0×10^6 cells/mL, and cultured with shaking in Wave Bioreactor (GE Healthcare) at 27° C., 20 rpm, rocking angle 100, oxygen concentration 30%.
On day 2 of the culture, recombinant Baculovirus BAC-ACC1 was added, and the cells were cultured for 3 days. The culture medium was centrifuged at 4000×g for 10 min to give virus-infected cells. The cells were washed with phosphate buffered saline (Invitrogen) and centrifuged under the same conditions. The obtained cells were cryopreserved at −80° C.
The cryopreserved cells were thawed in ice, and suspended in 800 mL of 25 mM HEPES buffer (pH 7.5) containing 10% Glycerol, 0.3 M NaCl, 1 mM EDTA, 25 mM Sodium β-Glycerophosphate and 1 mM Sodium Orthovanadate, and supplemented with Complete Protease Inhibitor (Roche). The obtained suspension was homogenized two times in a polytron homogenizer (Kinematica) at 20,000 rpm for 20 sec. The obtained cell disruption solution was clarified by centrifugation at 186,000×g for 60 min, and the supernatant was passed through Ni-NTA Superflow Cartridges (5 mL) (QUIAGEN). Furthermore, it was washed with 25 mM HEPES buffer (pH 7.5) containing 20 mM Imidazole and 0.3 M NaCl, and eluted with 25 mM HEPES buffer (pH 7.5) containing 250 mM Imidazol and 0.3 M NaCl. The eluate was concentrated by Amicon Ultra-15 (Nihon Millipore K.K.) having a fraction molecular weight of 50K. The obtained concentrate was subjected to gel filtration with 50 mM HEPES buffer (pH 7.5) containing 10 mM MgCl2, 2 mM dithiothreitol, 10 mM tripotassium citrate and 0.3 M NaCl by using HiLoad 26/60 Superdex200 prep grade gel filtration column (GE Healthcare) to give ACC1. The obtained ACC1 was cryopreserved at −80° C.
(3) Measurement of ACC1 Inhibitory Activity
ACC1 obtained in the above-mentioned (2) was diluted with an enzyme reaction buffer (50 mM HEPES (pH 7.5), 10 mM MgCl2, 10 mM Tripottasium Citrate, 2 mM Dithiothreitol, 0.001% Fatty acid free BSA) to a concentration of 0.2 μg/ml, and the mixture was added to each well of a 384 well assay plate by 10 μl. A test compound dissolved in dimethyl sulfoxide (DMSO) was diluted with an enzyme reaction buffer, and the resulting solution (5 μl) was added to each well. The mixture was incubated at room temperature for 60 min. Then, a substrate solution (50 mM KHCO3, 200 μM ATP, 200 μM Acetyl-CoA, 5 μl) was added to each well, and the mixture was reacted at room temperature for 30 min. The reaction was quenched by adding a reaction quenching liquid (1.3% formic acid, 0.2 μM Malonyl-^13C3-CoA) by 60 μL each to the obtained reaction mixtures (test compound addition group).
In addition, a reaction was performed in the same manner as above and without adding the test compound (test compound non-addition group). […]

For experiment [2], the system named is HCT116 cells. Nature of the experiment: Growth inhibitory activity on HCT116 cell (CellTiter-Glo). Type of experiment: cell-based. To be noted: Homo sapiens, HCT-116, 72 h; test compound 1 μM, 3 days; read-out: HCT116 cell proliferation inhibitory rate (%) at 1 μM. The method, then: The growth inhibitory activity of the compound on HCT116 cell was evaluated by the following method.
HCT116 cells were seeded in a 384 well blackplate at 900 cells/[…]/well, and maintained in an assay medium (RPMI medium (Wako) containing 2% fetal bovine serum, 50 Unit/mL penicillin and […] streptomycin (Invitrogen)). The next day, a test compound dissolved in dimethyl sulfoxide (DMSO) was diluted with the assay medium, and the obtained compound solution was added by […] to each well of a plate containing HCT116 cells, and incubated at 37° C., 5% CO2 (test compound addition group).
A similar reaction was performed without adding a test compound (test compound non-addition group).
Furthermore, a similar reaction was performed under the conditions without adding HCT116 cell and a test compound (control group).
After 3 days, […] of a CellTiter-Glo reagent (Promega KK) was added to the well, and the mixture was stirred for 10 min. Thereafter, the luminescence value of each well was measured by the EnVision™ multilabel counter (Perkin Elmer Inc.).
The HCT116 cell proliferation inhibitory rate (%) of the test compound was determined by the following calculation formula. (1−(luminescence of test compound addition group−luminescence of control group)÷(luminescence of test compound non-addition group−luminescence of control group))×100
The HCT116 cell proliferation inhibitory rates (%) of the test compound (1 μM) are shown below.

In the case of `CC(=O)NC(C)c1ccc(OCc2ccc(Oc3cccc(OCC4CC4)c3)cc2F)cc1` (centres unmarked) [Example 19, N-(1-(4-((4-(3-(cyclopropylmethoxy)phenoxy)-2-fluorobenzyl)oxy)phenyl)ethyl)acetamide], in experiment [1], the inhibition at 10 µM is 83%. For the same compound, in experiment [2], the inhibition at 1 µM was determined as 15%.
In the same order, the values of `CC(=O)N[C@@H](C)COc1cnc(-c2ccc(Oc3cccc(OCC4CC4)c3)cc2)o1` [Example 30, N-((2S)-1-((2-(4-(3-(cyclopropylmethoxy)phenoxy)phenyl)-1,3-oxazol-5-yl)oxy)propan-2-yl)acetamide] are 99% and 28%.
For `CC(=O)NC(C)c1ccc(OCc2c(F)cc(Oc3cccc(OCC4CC4)c3)cc2F)nn1` (centres unmarked) [Example 78, N-(1-(6-((4-(3-(cyclopropylmethoxy)phenoxy)-2,6-difluorobenzyl)oxy)pyridazin-3-yl)ethyl)acetamide] the same measures were 97% and 12%.
For `CC(=O)NC(C)CCc1ccn(-c2ccc(Oc3cccc(OCC4CC4)c3)cc2)n1` (centres unmarked) [Example 48, N-(4-(1-(4-(3-(cyclopropylmethoxy)phenoxy)phenyl)-1H-pyrazol-3-yl)butan-2-yl)acetamide] the same measures were 96% and 14%.
